In US12552783B2, “Modulators of proteolysis and associated methods of use” (Arvinas Operations, Inc., priority 2018, dated 2026):

Target: KRas (Homo sapiens, UniProt P01116, G12C)
Assay: KRas degradation in SW1573 cells by Western blot, normalized to GAPDH (data of Table 14)
Assay type: cell-based
Conditions: SW1573 cells
How it was run: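 SW1573 cells, homozygous for the KRas G12C mutation and maintained in DMEM with 10% FBS and 1% penicillin-streptomycin, were seeded in 12-well plates, allowed to attach overnight at 37° C. under 5% CO2, then serum-starved for 24 hours before compound exposure. KRas levels were measured by Western blot, normalized to GAPDH, and compared with DMSO controls to give percent degradation, DC50 and Dmax.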

| Dmax | Percent Degradation at Indicated Concentration (μM) (0.1 μM) | Percent Degradation at Indicated Concentration (μM) (0.3 μM) | Percent Degradation at Indicated Concentration (μM) (1 μM) | Percent Degradation at Indicated Concentration (μM) (0.03 μM) | Compound |
| --- | --- | --- | --- | --- | --- |
| 35 to 70% | C (Percent Degradation: C ≤ 35) | B (35 < B < 70) | B (35 < B < 70) |  | C=CC(=O)N1CCN(c2nc(OC[C@@H]3C[C@@H](OCCOCCNc4cccc5c4C(=O)N(C4CCC(=O)NC4=O)C5=O)CN3C)nc3c2CCN(c2cccc4ccccc24)C3)C[C@@H]1CC#N (stereo partly drawn) [compound 516, 2-((2S)-1-acryloyl-4-(2-(((2S,4R)-4-(2-(2-((2-(2,6-dioxopiperidin-3-yl)-1,3-dioxoisoindolin-4-yl)amino)ethoxy)ethoxy)-1-methylpyrrolidin-2-yl)methoxy)-7-(naphthalen-1-yl)-5,6,7,8-tetrahydropyrido[3,4-d]pyrimidin-4-yl)piperazin-2-yl)acetonitrile] |
| ≥ 70% | B (35 < B < 70) | A (A > 70) | C (Percent Degradation: C ≤ 35) |  | C=CC(=O)N1CCN(c2nc(OC[C@@H]3C[C@@H](OCCOCCOCCOCCNc4cccc5c4C(=O)N(C4CCC(=O)NC4=O)C5=O)CN3C)nc3c2CCN(c2cccc4ccccc24)C3)C[C@@H]1CC#N (stereo partly drawn) [compound 518, 2-((2S)-1-acryloyl-4-(2-(((2S,4R)-4-(2-(2-(2-(2-((2-(2,6-dioxopiperidin-3-yl)-1,3-dioxoisoindolin-4-yl)amino)ethoxy)ethoxy)ethoxy)ethoxy)-1-methylpyrrolidin-2-yl)methoxy)-7-(naphthalen-1-yl)-5,6,7,8-tetrahydropyrido[3,4-d]pyrimidin-4-yl)piperazin-2-yl)acetonitrile] |
| ≥ 70% | B (35 < B < 70) | A (A > 70) | C (Percent Degradation: C ≤ 35) |  | C=CC(=O)N1CCN(c2nc(OC[C@@H]3C[C@@H](OCCOCCOCCOCCOCCNc4cccc5c4C(=O)N(C4CCC(=O)NC4=O)C5=O)CN3C)nc3c2CCN(c2cccc4ccccc24)C3)C[C@@H]1CC#N (stereo partly drawn) [compound 519, 2-((2S)-1-acryloyl-4-(2-(((2S,4R)-4-((14-((2-(2,6-dioxopiperidin-3-yl)-1,3-dioxoisoindolin-4-yl)amino)-3,6,9,12-tetraoxatetradecyl)oxy)-1-methylpyrrolidin-2-yl)methoxy)-7-(naphthalen-1-yl)-5,6,7,8-tetrahydropyrido[3,4-d]pyrimidin-4-yl)piperazin-2-yl)acetonitrile] |
|  | C (Percent Degradation: C ≤ 35) | C (Percent Degradation: C ≤ 35) |  | C (Percent Degradation: C ≤ 35) | C=CC(=O)N1CCN(c2nc(O[C@H](C)CN3CCC(OCCOc4cc([C@@H](C(=O)N5C[C@H](O)C[C@H]5C(=O)N[C@@H](C)c5ccc(-c6scnc6C)cc5)C(C)C)on4)CC3)nc3c(F)c(-c4cc(O)cc5ccccc45)c(Cl)cc23)CC1 [compound 524, (2S,4R)-1-((2S)-2-(3-(2-((1-((2R)-2-((4-(4-acryloylpiperazin-1-yl)-6-chloro-8-fluoro-7-(3-hydroxynaphthalen-1-yl)quinazolin-2-yl)oxy)propyl)piperidin-4-yl)oxy)ethoxy)isoxazol-5-yl)-3-methylbutanoyl)-4-hydroxy-N-((S)-1-(4-(4-methylthiazol-5-yl)phenyl)ethyl)pyrrolidine-2-carboxamide] |
|  | C (Percent Degradation: C ≤ 35) | C (Percent Degradation: C ≤ 35) |  | C (Percent Degradation: C ≤ 35) | C=CC(=O)N1CCN(c2nc(O[C@H](C)CN3CCC(OCCOc4cc([C@H](C(=O)N5C[C@H](O)C[C@H]5C(=O)N[C@@H](C)c5ccc(-c6scnc6C)cc5)C(C)C)on4)CC3)nc3c(F)c(-c4cc(O)cc5ccccc45)c(Cl)cc23)CC1 [compound 525, (2S,4R)-1-((2R)-2-(3-(2-((1-((2R)-2-((4-(4-acryloylpiperazin-1-yl)-6-chloro-8-fluoro-7-(3-hydroxynaphthalen-1-yl)quinazolin-2-yl)oxy)propyl)piperidin-4-yl)oxy)ethoxy)isoxazol-5-yl)-3-methylbutanoyl)-4-hydroxy-N-((S)-1-(4-(4-methylthiazol-5-yl)phenyl)ethyl)pyrrolidine-2-carboxamide] |
|  | C (Percent Degradation: C ≤ 35) | C (Percent Degradation: C ≤ 35) |  | C (Percent Degradation: C ≤ 35) | C=CC(=O)N1CCN(c2nc(O[C@H](C)CN3CCC(OCCOCCOc4cc([C@@H](C(=O)N5C[C@H](O)C[C@H]5C(=O)N[C@@H](C)c5ccc(-c6scnc6C)cc5)C(C)C)on4)CC3)nc3c(F)c(-c4cc(O)cc5ccccc45)c(Cl)cc23)CC1 [compound 526, (2S,4R)-1-((2S)-2-(3-(2-(2-((1-((2R)-2-((4-(4-acryloylpiperazin-1-yl)-6-chloro-8-fluoro-7-(3-hydroxynaphthalen-1-yl)quinazolin-2-yl)oxy)propyl)piperidin-4-yl)oxy)ethoxy)ethoxy)isoxazol-5-yl)-3-methylbutanoyl)-4-hydroxy-N-((S)-1-(4-(4-methylthiazol-5-yl)phenyl)ethyl)pyrrolidine-2-carboxamide] |
|  | C (Percent Degradation: C ≤ 35) | C (Percent Degradation: C ≤ 35) |  | C (Percent Degradation: C ≤ 35) | C=CC(=O)N1CCN(c2nc(O[C@H](C)CN3CCC(OCCOCCOc4cc([C@H](C(=O)N5C[C@H](O)C[C@H]5C(=O)N[C@@H](C)c5ccc(-c6scnc6C)cc5)C(C)C)on4)CC3)nc3c(F)c(-c4cc(O)cc5ccccc45)c(Cl)cc23)CC1 [compound 527, (2S,4R)-1-((2R)-2-(3-(2-(2-((1-((2R)-2-((4-(4-acryloylpiperazin-1-yl)-6-chloro-8-fluoro-7-(3-hydroxynaphthalen-1-yl)quinazolin-2-yl)oxy)propyl)piperidin-4-yl)oxy)ethoxy)ethoxy)isoxazol-5-yl)-3-methylbutanoyl)-4-hydroxy-N-((S)-1-(4-(4-methylthiazol-5-yl)phenyl)ethyl)pyrrolidine-2-carboxamide] |
|  | C (Percent Degradation: C ≤ 35) | C (Percent Degradation: C ≤ 35) |  | C (Percent Degradation: C ≤ 35) | C=CC(=O)N1CCN(c2nc(O[C@H](C)CN3CCC(OCCOCCOCCOc4cc([C@@H](C(=O)N5C[C@H](O)C[C@H]5C(=O)N[C@@H](C)c5ccc(-c6scnc6C)cc5)C(C)C)on4)CC3)nc3c(F)c(-c4cc(O)cc5ccccc45)c(Cl)cc23)CC1 [compound 528, (2S,4R)-1-((2S)-2-(3-(2-(2-(2-((1-((2R)-2-((4-(4-acryloylpiperazin-1-yl)-6-chloro-8-fluoro-7-(3-hydroxynaphthalen-1-yl)quinazolin-2-yl)oxy)propyl)piperidin-4-yl)oxy)ethoxy)ethoxy)ethoxy)isoxazol-5-yl)-3-methylbutanoyl)-4-hydroxy-N-((S)-1-(4-(4-methylthiazol-5-yl)phenyl)ethyl)pyrrolidine-2-carboxamide] |
|  | C (Percent Degradation: C ≤ 35) | C (Percent Degradation: C ≤ 35) |  | C (Percent Degradation: C ≤ 35) | C=CC(=O)N1CCN(c2nc(O[C@H](C)CN3CCC(OCCOCCOCCOc4cc([C@H](C(=O)N5C[C@H](O)C[C@H]5C(=O)N[C@@H](C)c5ccc(-c6scnc6C)cc5)C(C)C)on4)CC3)nc3c(F)c(-c4cc(O)cc5ccccc45)c(Cl)cc23)CC1 [compound 529, (2S,4R)-1-((2R)-2-(3-(2-(2-(2-((1-((2R)-2-((4-(4-acryloylpiperazin-1-yl)-6-chloro-8-fluoro-7-(3-hydroxynaphthalen-1-yl)quinazolin-2-yl)oxy)propyl)piperidin-4-yl)oxy)ethoxy)ethoxy)ethoxy)isoxazol-5-yl)-3-methylbutanoyl)-4-hydroxy-N-((S)-1-(4-(4-methylthiazol-5-yl)phenyl)ethyl)pyrrolidine-2-carboxamide] |
|  | C (Percent Degradation: C ≤ 35) | C (Percent Degradation: C ≤ 35) |  | C (Percent Degradation: C ≤ 35) | C=CC(=O)N1CCN(c2nc(O[C@H](C)CN3CCC(OCCOCCOCCOCCOc4cc([C@H](C(=O)N5C[C@H](O)C[C@H]5C(=O)N[C@@H](C)c5ccc(-c6scnc6C)cc5)C(C)C)on4)CC3)nc3c(F)c(-c4cc(O)cc5ccccc45)c(Cl)cc23)CC1 [compound 530, (2S,4R)-1-((2R)-2-(3-(2-(2-(2-(2-((1-((2R)-2-((4-(4-acryloylpiperazin-1-yl)-6-chloro-8-fluoro-7-(3-hydroxynaphthalen-1-yl)quinazolin-2-yl)oxy)propyl)piperidin-4-yl)oxy)ethoxy)ethoxy)ethoxy)ethoxy)isoxazol-5-yl)-3-methylbutanoyl)-4-hydroxy-N-((S)-1-(4-(4-methylthiazol-5-yl)phenyl)ethyl)pyrrolidine-2-carboxamide] |
|  | C (Percent Degradation: C ≤ 35) | C (Percent Degradation: C ≤ 35) |  | C (Percent Degradation: C ≤ 35) | C=CC(=O)N1CCN(c2nc(O[C@H](C)CN3CCC(OCCOCCOCCOCCOc4cc([C@@H](C(=O)N5C[C@H](O)C[C@H]5C(=O)N[C@@H](C)c5ccc(-c6scnc6C)cc5)C(C)C)on4)CC3)nc3c(F)c(-c4cc(O)cc5ccccc45)c(Cl)cc23)CC1 [compound 531, (2S,4R)-1-((2S)-2-(3-(2-(2-(2-(2-((1-((2R)-2-((4-(4-acryloylpiperazin-1-yl)-6-chloro-8-fluoro-7-(3-hydroxynaphthalen-1-yl)quinazolin-2-yl)oxy)propyl)piperidin-4-yl)oxy)ethoxy)ethoxy)ethoxy)ethoxy)isoxazol-5-yl)-3-methylbutanoyl)-4-hydroxy-N-((S)-1-(4-(4-methylthiazol-5-yl)phenyl)ethyl)pyrrolidine-2-carboxamide] |
